In brackets after ≈: the same amount, converted by molar mass.
Columns and labels:
[1] = molecular target: T1, Complement C1s subcomponent (Homo sapiens, UniProt P09871); test: Inhibition of Complement C1s subcomponent
T1 sequence (P09871 whole entry): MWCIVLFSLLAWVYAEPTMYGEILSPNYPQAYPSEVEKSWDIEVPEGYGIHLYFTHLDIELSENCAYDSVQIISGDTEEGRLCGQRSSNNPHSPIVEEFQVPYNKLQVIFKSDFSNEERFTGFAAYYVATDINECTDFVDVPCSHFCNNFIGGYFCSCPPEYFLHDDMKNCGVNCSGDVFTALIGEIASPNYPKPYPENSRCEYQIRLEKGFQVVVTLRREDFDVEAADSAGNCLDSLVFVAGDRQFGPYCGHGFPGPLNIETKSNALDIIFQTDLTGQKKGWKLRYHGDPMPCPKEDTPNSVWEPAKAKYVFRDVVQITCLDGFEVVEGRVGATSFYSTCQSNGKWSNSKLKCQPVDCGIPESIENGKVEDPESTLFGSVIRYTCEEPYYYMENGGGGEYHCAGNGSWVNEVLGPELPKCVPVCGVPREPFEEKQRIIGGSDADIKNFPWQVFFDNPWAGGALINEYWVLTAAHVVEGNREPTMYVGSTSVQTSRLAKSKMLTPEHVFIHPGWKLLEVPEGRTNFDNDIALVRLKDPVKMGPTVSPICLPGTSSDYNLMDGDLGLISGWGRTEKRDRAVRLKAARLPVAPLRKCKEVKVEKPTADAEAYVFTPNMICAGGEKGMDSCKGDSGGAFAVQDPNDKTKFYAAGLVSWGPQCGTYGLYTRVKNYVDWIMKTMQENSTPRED

[2] = Aqueous solubility at physiological pH; format: physicochemical
hERG (KCNH2) = hERG (KCNH2) (Homo sapiens, UniProt Q12809); test: Inhibition of human ERG at 10 uM by patch clamp assay
Sequence of hERG (KCNH2) (Q12809 whole entry): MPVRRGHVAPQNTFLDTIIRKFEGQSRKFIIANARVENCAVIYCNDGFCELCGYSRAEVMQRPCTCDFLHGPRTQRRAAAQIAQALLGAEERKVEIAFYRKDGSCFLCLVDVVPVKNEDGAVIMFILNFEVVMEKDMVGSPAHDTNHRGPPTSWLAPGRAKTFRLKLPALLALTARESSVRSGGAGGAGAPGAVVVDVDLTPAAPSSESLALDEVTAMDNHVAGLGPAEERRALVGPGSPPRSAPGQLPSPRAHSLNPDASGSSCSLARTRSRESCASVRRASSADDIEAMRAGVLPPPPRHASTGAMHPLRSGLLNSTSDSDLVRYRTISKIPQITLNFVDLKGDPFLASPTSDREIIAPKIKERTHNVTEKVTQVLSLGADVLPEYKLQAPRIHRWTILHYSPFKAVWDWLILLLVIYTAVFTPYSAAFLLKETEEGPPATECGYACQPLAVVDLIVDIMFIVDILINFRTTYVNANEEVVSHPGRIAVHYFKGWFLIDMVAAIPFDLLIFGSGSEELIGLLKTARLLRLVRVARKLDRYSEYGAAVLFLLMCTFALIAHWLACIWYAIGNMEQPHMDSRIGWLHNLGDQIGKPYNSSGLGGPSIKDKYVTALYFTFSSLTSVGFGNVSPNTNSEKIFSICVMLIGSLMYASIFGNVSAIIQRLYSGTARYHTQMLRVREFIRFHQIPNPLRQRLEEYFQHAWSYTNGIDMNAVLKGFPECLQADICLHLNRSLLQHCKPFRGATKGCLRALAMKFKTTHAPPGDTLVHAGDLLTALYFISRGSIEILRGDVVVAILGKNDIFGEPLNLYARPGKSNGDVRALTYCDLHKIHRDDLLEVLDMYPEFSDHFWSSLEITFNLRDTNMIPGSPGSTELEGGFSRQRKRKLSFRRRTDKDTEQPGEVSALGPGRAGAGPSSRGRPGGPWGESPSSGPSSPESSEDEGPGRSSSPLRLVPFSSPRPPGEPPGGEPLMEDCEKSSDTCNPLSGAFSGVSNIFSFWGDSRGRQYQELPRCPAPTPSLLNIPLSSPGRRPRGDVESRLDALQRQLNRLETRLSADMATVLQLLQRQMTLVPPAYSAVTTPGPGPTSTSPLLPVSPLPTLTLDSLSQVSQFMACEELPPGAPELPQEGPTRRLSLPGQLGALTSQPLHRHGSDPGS

[3] = Half life in rat at 2 mg/kg, iv; format: ADME, organism-based; design: dose 2 mg/kg, route intravenous; conditions: in vivo
[4] = Volume of distribution in rat at 2 mg/kg, iv; format: ADME, organism-based; design: dose 2 mg/kg, route intravenous; conditions: in vivo
[5] = Clearance in rat at 2 mg/kg, iv; format: ADME, organism-based; design: dose 2 mg/kg, route intravenous; conditions: in vivo

Compound | Ki [1] [nM] | other results
CSc1sc(C(=N)N)cc1S(=O)(=O)c1cccc(Br)c1 | 360 | 
COc1cccc(-c2cccc(S(=O)(=O)c3cc(C(=N)N)sc3SC)c2)c1 | 490 | 
COc1ccccc1-c1cccc(S(=O)(=O)c2cc(C(=N)N)sc2SC)c1 | 610 | 
CSc1sc(C(=N)N)cc1S(=O)(=O)c1cccc(-c2ccc(C)cc2)c1 | 250 | 
CSc1sc(C(=N)N)cc1S(=O)(=O)c1cccc(-c2c(C)cccc2NC(=O)CCCS(C)(=O)=O)c1 | 14 | solubility [2]: 35 µM (≈ 19.8 µg/mL); half-life [3]: 1.8 h; Vd [4]: 2.03 L/kg; clearance [5]: 130 mL/min/kg
CSc1sc(C(=N)N)cc1S(=O)(=O)c1cccc(-c2cccc(C)c2)c1 | 1850 | 
CSc1sc(C(=N)N)cc1S(=O)(=O)c1cccc(-c2ccccc2)c1 | 260 | 
COc1ccc(-c2cccc(S(=O)(=O)c3cc(C(=N)N)sc3SC)c2)cc1 | 350 | 
CSc1sc(C(=N)N)cc1S(=O)(=O)c1cccc(-c2ccccc2O)c1 | 460 | 

More lines, main results first:

Ki [1] [nM] | Compound | other results
40 | CSc1sc(C(=N)N)cc1S(=O)(=O)c1cccc(-c2ccccc2Cl)c1 | 
150 | CSc1sc(C(=N)N)cc1S(=O)(=O)c1cccc(-c2cccc(O)c2)c1 | 
22 | CSc1sc(C(=N)N)cc1S(=O)(=O)c1cccc(-c2c(C)cccc2NC(=O)NCCCCCC(=O)O)c1 | solubility [2]: 39 µM (≈ 22.4 µg/mL); inhibition at 10 µM (hERG (KCNH2)): 5.8%; half-life [3]: 0.2 h; Vd [4]: 2.65 L/kg; clearance [5]: 228 mL/min/kg
120 | CSc1sc(C(=N)N)cc1S(=O)(=O)c1cccc(-c2ccccc2CO)c1 | 
20 | CSc1sc(C(=N)N)cc1S(=O)(=O)c1cccc(-c2c(C)cccc2N)c1 | 
120 | CSc1sc(C(=N)N)cc1S(=O)(=O)c1cccc(-c2c(C)cccc2NC(=O)CS(C)(=O)=O)c1 | solubility [2]: 43 µM (≈ 23.1 µg/mL)
50 | CSc1sc(C(=N)N)cc1S(=O)(=O)c1cccc(-c2c(C)cccc2CO)c1 | 
64 | CSc1sc(C(=N)N)cc1S(=O)(=O)c1cccc(-c2c(C)cccc2NC(=O)NCCc2nn[nH]n2)c1 | inhibition at 10 µM (hERG (KCNH2)): 1%
40 | CSc1sc(C(=N)N)cc1S(=O)(=O)c1cccc(-c2cccc(C)n2)c1 | solubility [2]: 22 µM (≈ 8.88 µg/mL); inhibition at 10 µM (hERG (KCNH2)): 66%; half-life [3]: 2 h; Vd [4]: 15 L/kg; clearance [5]: 283 mL/min/kg
140 | C=Cc1ccccc1-c1cccc(S(=O)(=O)c2cc(C(=N)N)sc2SC)c1 | 
190 | CSc1sc(C(=N)N)cc1S(=O)(=O)c1cccc(-c2ccc(O)cc2)c1 | 
150 | CSc1sc(C(=N)N)cc1S(=O)(=O)c1cccc(-c2c(C)cccc2C(=O)O)c1 | 
42 | CSc1sc(C(=N)N)cc1S(=O)(=O)c1cccc(-c2c(C)cccc2NC(=O)CCCCC(=O)O)c1 | solubility [2]: 40 µM (≈ 21.8 µg/mL)
30 | CSc1sc(C(=N)N)cc1S(=O)(=O)c1cccc(-c2ccccc2C)c1 | 

Source: ChEMBL document CHEMBL1141496, “Biphenylsulfonyl-thiophene-carboxamidine inhibitors of the complement component C1s” (Bioorg Med Chem Lett, 2008)
